The values below come from publication PMC4976375, “Structure of a Highly Active Cephalopod S-crystallin Mutant: New Molecular Evidence for Evolution from an Active Enzyme into Lens-Refractive Protein” (Scientific Reports, 2016).

One assay has as its system T1, Octopus GST-σ.
T1 construct: gene GST-sigma
Briefly: GSH-CDNB conjugation, absorbance […] nm. The assay is classed as biochemical, Octopus vulgaris. Conditions: GSH 10 mM; apparent; read-out: Km,CDNB (mM) ^c.

The target in assay [1] is Wild-type S-crystallin (OctS4) of Octopus vulgaris (Octopus vulgaris). Briefly: AUC; sedimentation velocity, 20 °C, 42,000 rpm, protein 0.025–1.0 mg/ml in 50 mM phosphate, pH 6.5; continuous c(M) distribution by SEDFIT.

The term Km denotes the concentration of substrate that gives half-maximal velocity. The term stoichiometry N denotes the number of molecules, sites or subunits per partner or assembly.

Take `O=[N+]([O-])c1ccc(Cl)c([N+](=O)[O-])c1` [CDNB, 1-chloro-2,4-dinitrobenzene]: in the assay with Octopus GST-σ, the Km stood at 0.47 ± 0.04 mM.
As to “Wild-type S-crystallin (OctS4) of Octopus vulgaris (natural protein)”, the stoichiometry N in assay [1] is 2.
